34 compounds from patent publication US20250170112A1, “ADENOSINE LIGANDS FOR THE TREATMENT OF NEUROLOGICAL DISORDERS” (Lucy Therapeutics, Inc., priority 2022, published 2025) can be followed below.

Bounds are passed on as bounds.

As usually defined, the EC50 is the concentration at which the effect is half-maximal.

Test [1] concerns the target T1, human A2B (Homo sapiens, UniProt P29275).
T1 construct: expressed in transfected cells; host or cells: HEK293
T1 sequence (P29275 1-332): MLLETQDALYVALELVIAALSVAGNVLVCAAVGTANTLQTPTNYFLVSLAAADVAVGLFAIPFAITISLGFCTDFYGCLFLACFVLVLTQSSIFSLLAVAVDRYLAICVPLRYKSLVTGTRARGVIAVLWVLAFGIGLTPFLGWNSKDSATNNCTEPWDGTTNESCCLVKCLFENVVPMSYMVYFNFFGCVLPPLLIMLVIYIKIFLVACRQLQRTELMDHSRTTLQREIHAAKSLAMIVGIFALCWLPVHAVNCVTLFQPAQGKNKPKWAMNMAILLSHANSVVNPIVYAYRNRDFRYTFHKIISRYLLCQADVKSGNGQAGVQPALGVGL
Nature of the test: cAMP HTRF assay for Gs coupled receptor, agonist test. The settings on record: agonist activity; HEK293 cells expressing recombinant human A2B; read-out: A2BAR EC50. Type of test: cell-based. An outline of the steps: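 Recombinant cells were incubated 30 min at room temperature with increasing agonist concentrations. Lysis buffer with cAMP-d2 and anti-cAMP cryptate was added, with 1 h at room temperature before the HTRF fluorescence ratio was read. Reference compounds were run in parallel.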
Background: In TR-FRET formats the signal depends on donor and acceptor labels being close together.

Test [2] addresses T2, human Adenosine A1 receptor (Homo sapiens, UniProt P30542).
T2 construct: host or cells: CHO-K1
T2 sequence (P30542 1-326): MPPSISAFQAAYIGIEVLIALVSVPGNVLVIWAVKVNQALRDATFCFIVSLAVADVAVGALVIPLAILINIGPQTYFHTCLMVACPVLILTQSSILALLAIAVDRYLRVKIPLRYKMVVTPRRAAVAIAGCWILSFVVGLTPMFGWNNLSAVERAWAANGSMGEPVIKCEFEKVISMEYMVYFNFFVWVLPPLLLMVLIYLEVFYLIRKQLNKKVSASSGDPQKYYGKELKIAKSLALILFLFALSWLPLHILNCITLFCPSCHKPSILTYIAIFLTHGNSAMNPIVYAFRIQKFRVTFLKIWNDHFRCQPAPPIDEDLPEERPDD
The test is described as follows: GTPγS scintillation proximity assay, agonist testing. Type of test: biochemical. The settings on record: agonist activity; membrane extracts of CHO-K1 cells expressing recombinant human A1; read-out: A1AR EC50. An outline of the steps: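 Agonist-stimulated [35S]GTPγS binding to membranes of CHO-K1 cells expressing recombinant human A1 receptor, in 20 mM HEPES pH 7.4, 100 mM NaCl, 10 μg/mL saponin, with receptor-optimized MgCl2 and GDP. GTPγ[35S] 0.1 nM final with WGA SPA beads; 1 h at room temperature, then scintillation counting.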

As for `COc1nc(SCC2COC2)c(C#N)c(-c2ccc(OC3COC3)cc2)c1C#N` [Compound 294, 2-Methoxy-6-((oxetan-3-ylmethyl)thio)-4-(4-(oxetan-3-yloxy)phenyl)pyridine-3,5-dicarbonitrile], the figures for the EC50 in test [1] and in test [2] were above 10000 nM and 25.2 nM, respectively.

In the case of `N#Cc1c(N)nc(SCc2cccnc2)c(C#N)c1-c1ccc(O[C@H]2C[C@H](O)C2)cc1` [Compound 295, 2-Amino-4-(4-((1r,3r)-3-hydroxycyclobutoxy)phenyl)-6-((pyridin-3-ylmethyl)thio)pyridine-3,5-dicarbonitrile], the EC50 stood at 9.79 nM in test [1] and 1.6 nM in test [2].

Regarding `N#Cc1c(N)nc(SCc2cccnc2)c(C#N)c1-c1ccc(O[C@H]2C[C@@H](O)C2)cc1` [Compound 296, 2-Amino-4-(4-((1s,3s)-3-hydroxycyclobutoxy)phenyl)-6-((pyridin-3-ylmethyl)thio)pyridine-3,5-dicarbonitrile], the EC50 worked out at 2.47 nM in test [1] and 20.6 nM in test [2].

In the case of `N#Cc1c(N)nc(SCC2COCOC2)c(C#N)c1-c1ccc(OC2COC2)cc1` [Compound 297], the EC50 in test [1] is above 10000 nM; in test [2], 1100 nM.

In the case of `N#Cc1c(N)nc(OCC2CCOCC2)c(C#N)c1-c1ccc(OC2COC2)cc1` [Compound 298], the EC50 is above 10000 nM in test [1] and 229 nM in test [2].

Take `N#Cc1c(N)nc(OCC2CCCCO2)c(C#N)c1-c1ccc(OC2COC2)cc1` (centres unmarked) [Compound 299]: the EC50 in test [1] and in test [2] was above 10000 nM each time.

On to `N#Cc1c(N)nc(OCC2CCCOC2)c(C#N)c1-c1ccc(OC2COC2)cc1` (centres unmarked) [Compound 300, 2-Amino-4-(4-(oxetan-3-yloxy)phenyl)-6-((tetrahydro-2H-pyran-3-yl)methoxy)pyridine-3,5-dicarbonitrile], for which the EC50 is above 10000 nM in test [1] and 1150 nM in test [2].

`N#Cc1c(N)nc(SCC2COCCO2)c(C#N)c1-c1ccc(OC2COC2)cc1` (centres unmarked) [Compound 301]: the EC50 in test [1] was above 10000 nM; in test [2] it was 228 nM.

Take `Cn1ccc2c(CSc3nc(N)c(C#N)c(-c4ccc(OC5COC5)cc4)c3C#N)cccc21` [Compound 302]: the EC50 in test [1] is 894 nM; in test [2], 64.8 nM.

Regarding `N#Cc1c(N)nc(SCC2COC2)c(C#N)c1-c1ccc(O[C@H]2C[C@H](O)C2)cc1` [Compound 303], the results for the EC50 in test [1] and in test [2] were above 10000 nM and 78.5 nM, respectively.

With `N#Cc1c(N)nc(SCC2OCCO2)c(C#N)c1-c1ccc(OC2COC2)cc1` [Compound 304], the EC50 is above 10000 nM in test [1] and 167 nM in test [2].

For the compound `N#Cc1c(N)nc(SCC2CCOCC2)c(C#N)c1-c1ccc(OC2COC2)cc1` [Compound 305], the EC50 turned out to be 1120 nM in test [1] and 140 nM in test [2].

In the case of `COCC(F)(F)Oc1ccc(-c2c(C#N)c(N)nc(SCc3cccnc3)c2C#N)cc1` [Compound 306], the EC50 in test [1] is above 10000 nM; in test [2], 353 nM.

In the case of `N#Cc1c(N)nc(OCCC2COC2)c(C#N)c1-c1ccc(OC2COC2)cc1` [Compound 307], the EC50 in test [1] and in test [2] was above 10000 nM throughout.

Turning to `N#Cc1c(N)nc(SCC2COC2)c(C#N)c1-c1ccc(OC2CCCOC2)cc1` (centres unmarked) [Compound 308], the EC50 in test [1] is 5570 nM; in test [2], above 10000 nM.

Turning to `N#Cc1c(N)nc(SCc2cccnc2)c(C#N)c1-c1ccc(OC(F)(F)CO)cc1` [Compound 309], the EC50 amounted to 0.962 nM in test [1] and 6.48 nM in test [2].

Turning to `COCC(F)(F)Oc1ccc(-c2c(C#N)c(N)nc(SCC3COC3)c2C#N)cc1` [Compound 310], the EC50 in test [1] and in test [2] was above 10000 nM in each case.

As to `N#Cc1c(N)nc(SCC2COC2)c(C#N)c1-c1ccc(OC(F)(F)CO)cc1` [Compound 311, 2-Amino-4-[4-(1,1-difluoro-2-hydroxy-ethoxy)phenyl]-6-(oxetan-3-ylmethylsulfanyl)pyridine-3,5-dicarbonitrile], the EC50 in test [1] was above 10000 nM; in test [2], 7.18 nM.

Consider `N#Cc1c(N)nc(OCC2COC2)c(C#N)c1-c1ccc(OC2COC2)cc1` [Compound 312, 2-Amino-6-(oxetan-3-ylmethoxy)-4-(4-(oxetan-3-yloxy)phenyl)pyridine-3,5-dicarbonitrile], for which the EC50 is above 10000 nM in test [1] and 204 nM in test [2].

Take `N#Cc1c(N)nc(SCC2(O)COC2)c(C#N)c1-c1ccc(OCCO)cc1` [Compound 313]: the EC50 in test [1] was above 10000 nM; in test [2] it was 55 nM.

As for `CNc1nc(SCC2COC2)c(C#N)c(-c2ccc(OC3COC3)cc2)c1C#N` [Compound 314], the EC50 in test [1] is above 10000 nM; in test [2] it was 5.16 nM.

In the case of `N#Cc1c(N)nc(SCC2(O)COC2)c(C#N)c1-c1ccc(OC2COC2)cc1` [Compound 315], the EC50 was above 10000 nM in test [1] and 81.8 nM in test [2].

With `CC(O)COc1ccc(-c2c(C#N)c(N)nc(SCC3COC3)c2C#N)cc1` (centres unmarked) [Compound 316], the EC50 in test [1] came to 305 nM; in test [2], 10.8 nM.

Consider `CC(C)(O)COc1ccc(-c2c(C#N)c(N)nc(SCC3COC3)c2C#N)cc1` [Compound 317], for which the EC50 in test [1] was above 10000 nM; in test [2], 88.7 nM.

For the compound `CN(C)c1nc(SCC2COC2)c(C#N)c(-c2ccc(OC3COC3)cc2)c1C#N` [Compound 318], the EC50 in test [1] is above 10000 nM; in test [2] it was 32.1 nM.

For the compound `N#Cc1c(N)nc(SCC2COC2)c(C#N)c1-c1ccc(OCCO)cc1` [Compound 319], the EC50 in test [1] is 401 nM; in test [2], 1.53 nM.

For `N#Cc1c(N)nc(SCC2(F)COC2)c(C#N)c1-c1ccc(OCCO)cc1` [Compound 320], the results for the EC50 in test [1] and in test [2] were above 10000 nM and 230 nM, respectively.

`COC1CC(Oc2ccc(-c3c(C#N)c(N)nc(SCC4CCOC4)c3C#N)cc2)C1` (centres unmarked) [Compound 321]: the EC50 in test [1] and in test [2] was above 10000 nM in each case.

`COC1CC(Oc2ccc(-c3c(C#N)c(N)nc(SCC4COC4)c3C#N)cc2)C1` (centres unmarked) [Compound 323]: the EC50 in test [1] was above 10000 nM; in test [2], 227 nM.

Take `N#Cc1c(N)nc(SCC2CCOC2)c(C#N)c1-c1ccc(OC2CC(O)C2)cc1` (centres unmarked) [Compound 324]: the values for the EC50 in test [1] and in test [2] were above 10000 nM and 21.3 nM, respectively.

Consider `N#Cc1c(N)nc(SCCC(F)(F)F)c(C#N)c1-c1ccc(OC2CCCOC2)cc1` (centres unmarked) [Compound 325], for which the EC50 in test [1] and in test [2] was above 10000 nM throughout.

Take `N#Cc1c(N)nc(SCC2CCOC2)c(C#N)c1-c1ccc(OC2CCCOC2)cc1` (centres unmarked) [Compound 326]: the EC50 in test [1] and in test [2] was above 10000 nM each time.

For the compound `CC1(CSc2nc(N)c(C#N)c(-c3ccc(OC4COC4)cc3)c2C#N)COC1` [Compound 327], the EC50 was above 10000 nM in test [1] and 22.1 nM in test [2].

For the compound `N#Cc1c(N)nc(SCCC(F)(F)F)c(C#N)c1-c1ccc(O[C@H]2C[C@H](O)C2)cc1` [Compound 328], the EC50 in test [1] and in test [2] was above 10000 nM throughout.
